Assay [1] concerns the target T1, EppA (Chelativorans sp. BNC1, UniProt Q11H97). The experiment in a line: Isothermal titration calorimetry of wild-type EppA with chelators and metal chelates. The class given is binding.
The target in assay [2] is T1, EppA. Conditions: earlier report; cited from earlier work.
The target of a further assay is R480A EppA mutant (Chelativorans sp. BNC1, UniProt Q11H97, R480A). As to the kind of experiment: biochemical. The protocol: (§1) All primers were ordered from Invitrogen (Carlsbad, CA, USA).
Chain of R480A EppA mutant (Q11H97 27-563, stated change not applied): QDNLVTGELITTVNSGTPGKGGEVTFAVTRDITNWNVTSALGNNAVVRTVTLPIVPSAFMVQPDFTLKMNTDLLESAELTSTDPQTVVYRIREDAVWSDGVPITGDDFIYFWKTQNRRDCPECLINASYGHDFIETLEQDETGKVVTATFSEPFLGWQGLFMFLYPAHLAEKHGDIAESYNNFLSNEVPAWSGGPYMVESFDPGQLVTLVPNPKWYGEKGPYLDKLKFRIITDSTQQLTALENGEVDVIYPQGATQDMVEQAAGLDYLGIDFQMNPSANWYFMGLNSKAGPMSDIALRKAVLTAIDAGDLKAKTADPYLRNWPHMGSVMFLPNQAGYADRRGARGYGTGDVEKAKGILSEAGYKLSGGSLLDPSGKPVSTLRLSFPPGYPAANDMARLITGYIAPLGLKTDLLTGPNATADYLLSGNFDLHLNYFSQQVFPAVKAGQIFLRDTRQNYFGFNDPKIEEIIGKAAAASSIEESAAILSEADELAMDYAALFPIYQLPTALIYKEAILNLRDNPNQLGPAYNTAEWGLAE
(§2) Isothermal calorimetric titrations were performed in a MicroCal iTC200 (Malvern Panalytical Ltd.; Malvern, UK). All titrations were performed at 25 °C and stirred at 750 rpm. […] EppA–ligand binding curves were corrected for heats of dilution by subtracting reference titrations of ligands at the same concentrations into a buffer without EppA. Data were fitted to a single-site model as implemented into the Origin 7 MicroCal Data Analysis software analysis package (Malvern Panalytical Ltd.; Malvern, UK) and then plotted in Excel.

Another assay concerns the target R74A EppA mutant (Chelativorans sp. BNC1, UniProt Q11H97, R74A). The experiment in a line: biochemical. As for the experimental part: as §1, §2
Another assay addresses R56A EppA mutant (Chelativorans sp. BNC1, UniProt Q11H97, R56A). As to the kind of experiment: biochemical. The protocol:
as §1, §2

In a further assay the target is K470A EppA mutant (Chelativorans sp. BNC1, UniProt Q11H97, K470A). The experiment in a line: biochemical. The protocol:
as §1, §2

The mark [3] stands for this setting: ITC, wild-type EppA, 25 °C, single replicate, n.b. = no binding.
Where [4] appears, read: ITC, wild-type EppA, 25 °C, single-site model, single replicate, n.b. = no binding.

Values joined by “and” are separate entries in the source; they are usually repeats but may differ in a detail not shown here. Identical values can stand only once. Like-named read-outs stand apart in the source and are kept apart here.

T1 sequence (Q11H97 entry or part of it): as the sequence (Q11H97 27-563, stated change not applied) above
Chain of R74A EppA mutant (Q11H97 27-563, stated change not applied): as above
Chain of K470A EppA mutant (Q11H97 27-563, stated change not applied): as above
Chain of R56A EppA mutant (Q11H97 27-563, stated change not applied): as above

With `O=C([O-])CN(CCN(CC(=O)O)CC(=O)O)CC(=O)[O-].[Ba+2]` [BaEDTA], at EppA [1] (setting [3]), the “∆H” value is reported as “n.b” and the “∆S” value is given as “n.b”. Further, the Kd result at EppA [1] (setting [4]) is given as “n.b”.

With `O=C(O)CN(CCN(CC(=O)O)CC(=O)O)CC(=O)O.[Ca+2]` [CaEDTA], at EppA [1], the “binding by EppA (in words)” value was “bound”, the “∆H” value is -2.917 ± 0.038 kcal/mol and the “∆S” value is listed as 16.0 cal mol^−1 K^−1.

On to `O=C([O-])CN(CCOCCOCCN(CC(=O)O)CC(=O)O)CC(=O)[O-].[Ca+2]` [CaEGTA], for which, at EppA [1] (ITC, wild-type EppA), the “binding by EppA (in words)” value is recorded as “not”. For the same molecule, on EppA [1] (setting [3]), the “∆H” value was “n.b” and the “∆S” value is given as “n.b”. Besides, on EppA [1] (setting [4]), the dissociation constant Kd entry was “n.b”.

Take `O=C(O)CN(CCN(CC(=O)O)CC(=O)O)CC(=O)O.[Cd+2]` [CdEDTA]: on EppA [1] (ITC, wild-type EppA), the “binding by EppA (in words)” value is listed as “did not bind”. Besides, at EppA [1] (setting [3]), the “∆H” value is -0.555 ± 0.002 kcal/mol and the “∆S” value stood at 28.1 cal mol^−1 K^−1.

As for `O=C([O-])CN(CCN(CC(=O)[O-])CC(=O)[O-])CC(=O)[O-].[Co+2]` [CoEDTA], the “binding by EppA (in words)” value at EppA [1] (ITC, wild-type EppA) is on record as “did not bind”. Also, on EppA [1] (setting [3]), the “∆H” value is “n.b” and the “∆S” value is “n.b”. Besides, the dissociation constant (Kd) result on EppA [1] (setting [4]) is recorded as “n.b”.

As for `O=C(O)CN(CCN(CC(=O)O)CC(=O)O)CC(=O)O.[Cr+3]` [CrEDTA], at EppA [1], the “∆H” value is -2.573 ± 0.145 kcal/mol and the “∆S” value was 30.5 cal mol^−1 K^−1.

For `O=C([O-])CN(CCN(CC(=O)[O-])CC(=O)[O-])CC(=O)[O-].[Cu+2]` [CuEDTA], the “binding by EppA (in words)” value on EppA [1] (ITC, wild-type EppA) is reported as “did not bind”. At EppA [1] (setting [3]), the “∆H” value is “n.b” and the “∆S” value was “n.b”. At EppA [1] (setting [4]), the Kd entry is recorded as “n.b”.

As for `O=C(O)CNCCNCC(=O)O` [EDDA, ethylenediamine-N,N′-diacetate, reference compound], on EppA [1], the “∆H” value is -0.851 ± 0.893 kcal/mol and the “∆S” value is given as 26.7 cal mol^−1 K^−1. Also, the Kd at EppA [1] (ITC, wild-type EppA, 25 °C, single-site model, single replicate, n.b. = no binding, read-out: Kd) was 588 nM and 340 nM.

`O=C(O)CN(CCN(CC(=O)O)CC(=O)O)CC(=O)O` [EDTA, ethylenediaminetetraacetate]: the “binding by EppA (in words)” value on EppA [2] is given as “binds”. For the same molecule, the equilibrium dissociation constant (Kd) was found to be 40.8 ± 26.5 nM at R480A EppA mutant; 249 ± 382 nM at R74A EppA mutant; 161 ± 272 nM at R56A EppA mutant; 27.1 ± 20.2 nM on K470A EppA mutant; 9.52 ± 6.25 nM on EppA [1] (Kd, ITC, wild-type EppA, 25 °C, single replicate); 9.5 ± 6 nM on EppA [1] (Kd, ITC, wild-type EppA, 25 °C, single-site model, single replicate, n.b. = no binding). The “∆H” value on R480A EppA mutant (ITC, R480A mutant, 25 °C) is -1.138 kcal/mol and -1.138 ± 0.089 kcal/mol; on R74A EppA mutant (ITC, R74A mutant, 25 °C), -1.877 kcal/mol and -1.877 ± 0.195 kcal/mol; at R56A EppA mutant (ITC, R56A mutant, 25 °C), -1.802 kcal/mol and -1.802 ± 0.147 kcal/mol; at K470A EppA mutant (ITC, K470A mutant, 25 °C), -1.872 kcal/mol and -1.872 ± 0.117 kcal/mol; at EppA [1], -2.283 kcal/mol and -2.283 ± 0.07 kcal/mol and -2.283 ± 0.070 kcal/mol. The “∆S” value on R480A EppA mutant (ITC, R480A mutant, 25 °C) is 30 cal mol^−1 K^−1; on R74A EppA mutant (ITC, R74A mutant, 25 °C), 23.9 cal mol^−1 K^−1; at R56A EppA mutant (ITC, R56A mutant, 25 °C), 25 cal mol^−1 K^−1; on K470A EppA mutant (ITC, K470A mutant, 25 °C), 28.3 cal mol^−1 K^−1; on EppA [1], 29 cal mol^−1 K^−1. The “reduction in EDTA binding” value was determined as 4 fold on R480A EppA mutant (R480A vs wild-type EppA), 26 fold at R74A EppA mutant (R74A vs wild-type EppA), 17 fold on R56A EppA mutant (R56A vs wild-type EppA) and 3 fold at K470A EppA mutant (K470A vs wild-type EppA).

Consider `O=C(O)CN(CCOCCOCCN(CC(=O)O)CC(=O)O)CC(=O)O` [EGTA, ethylene glycol-bis(β-aminoethylether)-N,N,N′,N′-tetraacetic acid, reference compound], for which, on EppA [1] (setting [3]), the “∆H” value was -4.340 kcal/mol and -4.34 ± 0.114 kcal/mol; the “∆S” value is 16.40 cal mol^−1 K^−1 and 16.4 cal mol^−1 K^−1.

On to `O=C(O)CN(CCN(CC(=O)O)CC(=O)O)CC(=O)O.[Eu+3]` [EuEDTA], for which, at EppA [1], the “∆H” value is -3.943 ± 0.105 kcal/mol and the “∆S” value is recorded as 7.72 cal mol^−1 K^−1.

For the molecule `O=C([O-])CN(CCN(CC(=O)[O-])CC(=O)[O-])CC(=O)[O-].[Fe+3]` [FeEDTA], the “binding by EppA (in words)” value on EppA [1] (ITC, wild-type EppA) is given as “did not bind”. Further, on EppA [1] (setting [3]), the “∆H” value is on record as “n.b” and the “∆S” value is listed as “n.b”. For the same molecule, the dissociation constant Kd entry at EppA [1] (setting [4]) is “n.b”.

In the case of `O=C(O)CN(CCN(CC(=O)O)CC(=O)O)CC(=O)O.[Mg+2]` [MgEDTA], on EppA [1], the “∆H” value was -4.028 ± 0.037 kcal/mol and the “∆S” value is recorded as 16.2 cal mol^−1 K^−1.

As for `O=C([O-])CN(CCN(CC(=O)[O-])CC(=O)[O-])CC(=O)[O-].[Ni+2]` [NiEDTA], the “binding by EppA (in words)” value at EppA [1] (ITC, wild-type EppA) is listed as “did not bind”. Besides, on EppA [1] (setting [3]), the “∆H” value is “n.b” and the “∆S” value is given as “n.b”. In addition, at EppA [1] (setting [4]), the equilibrium dissociation constant (Kd) result is on record as “n.b”.

As for `O=C(O)CN(CCN(CC(=O)O)CC(=O)O)CC(=O)O.[Sr+2]` [SrEDTA], on EppA [1], the “∆H” value is -4.392 ± 0.118 kcal/mol and the “∆S” value is 27.1 cal mol^−1 K^−1.

In the case of `O=C(O)CN(CCOCCOCCN(CC(=O)O)CC(=O)O)CC(=O)O.[Sr+2]` [SrEGTA], on EppA [1] (setting [3]), the “∆H” value turned out to be 0.794 ± 0.164 kcal/mol and the “∆S” value was found to be 27.1 cal mol^−1 K^−1.

Regarding `O=C(O)CN(CCN(CC(=O)O)CC(=O)O)CC(=O)O.[Tb+3]` [TbEDTA], at EppA [1], the “∆H” value is -0.751 ± 0.069 kcal/mol and the “∆S” value is given as 18.1 cal mol^−1 K^−1.

Regarding `O=C(O)CN(CCN(CC(=O)O)CC(=O)O)CC(=O)O.[Zn]` [ZnEDTA], the “binding by EppA (in words)” value on EppA [1] (ITC, wild-type EppA) is “did not bind”. Besides, at EppA [1] (setting [3]), the “∆H” value was “n.b” and the “∆S” value is recorded as “n.b”. On EppA [1] (setting [4]), the Kd result is “n.b”.

In the case of “Asp10: decameric polyaspartate (DDDDDDDDDD) [reference compound]”, the “binding by EppA (in words)” value with EppA [1] (ITC, wild-type EppA) is listed as “did not bind”. In the assay with EppA [1] (setting [3]), the “∆H” value is given as “n.b” and the “∆S” value was “n.b”. For the same molecule, the dissociation constant (Kd) result in the assay with EppA [1] (setting [4]) is on record as “n.b. ^c”.

Regarding MnEDTA, on EppA [1] (ITC, wild-type EppA), the “binding by EppA (in words)” value is reported as “did not bind”. Besides, at EppA [1] (setting [3]), the “∆H” value is listed as “n.b” and the “∆S” value is given as “n.b”. The Kd result at EppA [1] (setting [4]) was “n.b”.

As usually defined, the Kd is a measure of binding affinity in units of concentration.

The record behind these values is article PMC7312458, “The Structural Basis of the Binding of Various Aminopolycarboxylates by the Periplasmic EDTA-Binding Protein EppA from Chelativorans sp. BNC1” (International Journal of Molecular Sciences, 2020).
